Test results reported in patent US20130014428A1, “METHODS OF MONITORING AND CONTROLLING THE WALNUT TWIG BEETLE, PITYOPHTHORUS JUGLANDIS” (The United States of America as Represented by the …, priority 2011, published 2013).

Tested on: walnut twig beetle (WTB), Pityophthorus juglandis
Experiment: Example 1 Field Test 2: flight response to X with and without racemic conophthorin
Format: in vivo
Settings: yellow sticky card traps, Davis CA
Protocol: Field Bioassays of Semiochemicals. To test the attractiveness of the various compounds of interest, some of the commercially available materials listed above were poured into 15 ml capped polyethylene bottles (Product #s A1-1050/002, A1-1055/002; Contech Enterprises Inc., Delta, British Columbia, Canada) and attached to yellow sticky card traps (Trécé, Adair, OK). In addition, synthesized (+) and (−) enantiomers of trans-conophthorin were tested in 400 μl polyethylene Eppendorf microcentrifuge tubes. Four field studies were conducted (Table 2) that tested the flight responses to: 3-methyl-2-buten-l-ol and related isomers (Field Test 1); 3-methyl-2-buten-l-ol with and without racemic trans-conophthorin (Field Test 2); 3-methyl-2-buten-l-ol with and without the purified enantiomers of trans-conophthorin (Field Test 3); and 3-methyl-2-buten-l-ol with and without racemic chalcogran (Field Test 4).
Statistical Analysis. Field Tests 1-4 were each analyzed for treatment effect by using Friedman's non-parametric analysis of variance. (See Zar, J. H. 2010. Biostatistical Analysis, 5th Ed. Pearson Prentice Hall, New Jersey). Males and females were subjected to separate analyses. All treatments within experiments yielding a significant treatment effect were compared by using an a posteriori Nemenyi test (Zar 2010) with experimentwise α=0.05. Sex ratios of responding WTB were determined using Cochran's method for unbiased sampling (See Cochran, W. G. 1977. Sampling Techniques, 3rd ed. John Wiley, New York), with 95% confidence intervals calculated by using the Clopper-Pearson method. (See Zar, J. H. 2010. Biostatistical Analysis, 5th Ed. Pearson Prentice Hall, New Jersey).

[1] = about one month late spring, N=16

CC(C)=CCO [X, 3-methyl-2-buten-1-ol]
proportion of females responding: 0.65
trap catches, female WTB [1]: 459
trap catches, male WTB [1]: 250
